Key:
[1] = Exposure assessment for dose proportionality, phase II dose-finding trial; assay type: in vivo, human
[2] = Population pharmacokinetic analysis of plasma liraglutide; assay type: in vivo, human
[3] = 60 kg subject vs reference subject weighing 100 kg
[4] = 234 kg subject vs reference subject weighing 100 kg

Structure (SMILES): CCCCCCCCCCCCCCCC(=O)N[C@@H](CCC(=O)NCCCC[C@H](NC(=O)[C@H](C)NC(=O)[C@H](C)NC(=O)[C@H](CCC(N)=O)NC(=O)CNC(=O)[C@H](CCC(=O)O)NC(=O)[C@H](CC(C)C)NC(=O)[C@H](Cc1ccc(O)cc1)NC(=O)[C@H](CO)NC(=O)[C@H](CO)NC(=O)[C@@H](NC(=O)[C@H](CC(=O)O)NC(=O)[C@H](CO)NC(=O)[C@@H](NC(=O)[C@H](Cc1ccccc1)NC(=O)[C@@H](NC(=O)CNC(=O)[C@H](CCC(=O)O)NC(=O)[C@H](C)NC(=O)[C@@H](N)Cc1cnc[nH]1)[C@@H](C)O)[C@@H](C)O)C(C)C)C(=O)N[C@@H](CCC(=O)O)C(=O)N[C@@H](Cc1ccccc1)C(=O)N[C@H](C(=O)N[C@@H](C)C(=O)N[C@@H](Cc1c[nH]c2ccccc12)C(=O)N[C@@H](CC(C)C)C(=O)N[C@H](C(=O)N[C@@H](CCCNC(=N)N)C(=O)NCC(=O)N[C@@H](CCCNC(=N)N)C(=O)NCC(=O)O)C(C)C)[C@@H](C)CC)C(=O)O [liraglutide, Liraglutide]
- geometric mean of the individual apparent clearance estimates ([1]; Trial 3): 0.93 L/h
- dose proportionality of model-derived AUC by dose ([1]; obese individuals, 1.2, 1.8, 2.4, 3.0 mg once daily, week 20): supported dose proportionality of liraglutide up to and including 3.0 mg
- CL/F lower than in reference subject [2, 3]: 29%
- liraglutide exposure higher than in reference subject [2, 3]: 41%
- CL/F higher than in reference subject [2, 4]: 78%
- liraglutide exposure lower than in reference subject [2, 4]: 44%
- liraglutide exposure lower in males than in females ([2]; comparable body weight): 24%
- liraglutide exposure lower in subjects with T2DM than in normoglycaemic subjects ([2]; confounded by trial (all T2DM subjects from Trial 2)): 16%
- higher exposure in Trial 1 than in Trial 2 ([2]; liraglutide 3.0 mg): 29%
- liraglutide exposure higher in females than males ([2]; same/comparable body weight): 32%

Reference: paper PMC5069304 (Clinical Pharmacokinetics, 2016)
